How the values were obtained:
Format in all cases: physicochemical
[1] = Specific viscosity retention of crosslinked HA hydrogel/HA solution formulation with and without TA, stored at 25° C. (Example 1A)
[2] = Effect of sucrose on HA viscosity at 80° C. (Example 1B); settings: HA solution
Description: 6.9 g of hyaluronic acid, HA (Lifecore, 888 KDa) was dissolved in 881 mL of 0.9% NaCl overnight. The dissolved HA was sterile filtered with 0.2 μm filter (Millipore, Opticap 4″). 3.97 mL of 1 M sodium phosphate, pH 6.71 was added to the HA solution. Then 372 mg of USP grade triamcinolone acetonide (TA) was mixed with 223.2 mL of dissolved HA in a sterile 250 mL Nalgene bottle. […] Each mixture was mixed for 1 hour. No additives were added to the control sample. For each large sample, 2±0.2 mL aliquots were placed in a sterile 4 mL glass vial which was then sealed with septum and aluminum cap. All these aliquoted samples, except the 0 hour samples, were placed in an oven set at 80° C. With the exception of the 0 hour samples, at each time point, 3 of the samples were removed from the oven and allowed to cool to room temperature. The viscosity of each sample was measured using AR550 Rheometer (TA Instrument) with 40 mm 2° steel cone at 22° C. with a 3 min time sweep. The percent retention of the HA viscosity was determined by the ratio of the viscosity (average of the 3 samples) on the specified day to that on 0 hour. The stabilization ratio at 30 hours is the ratio of the percent retention of HA viscosity with the specific additive to the percent retention of HA viscosity of the sample with no additive.

[3] = Effect of sucrose on HA viscosity at 60° C. (Example 2); settings: HA solution
Description: 6.9 g of HA (Lifecore, 888 KDa) was dissolved in 881 mL of 0.9% NaCl overnight. The dissolved HA was sterile filtered with 0.2 μm filter (Millipore, Opticap 4″). 3.97 mL of 1 M Sodium Phosphate, pH 6.71 was added to the HA solution. Then 372 mg of USP grade triamcinolone acetonide (TA) was mixed with 223.2 mL of dissolved HA in a sterile 250 mL Nalgene bottle. […] Each mixture was mixed for 1 hour. No additives were added to the control sample. For each large sample, 2±0.2 mL aliquots were placed in a sterile 4 mL glass vial which was then sealed with septum and aluminum cap. All these aliquoted samples, except the 0 hour samples, were placed in an oven set at 60° C. With the exception of the Day 0 samples, at each time point, 3 of the samples were removed from the oven and allowed to cool to room temperature. The viscosity of each sample was measured using AR550 Rheometer (TA Instrument) with 40 mm 2° steel cone at 22° C. with a 3 min time sweep. The percent retention of the HA viscosity was determined by the ratio of the viscosity (average of the 3 samples) on the specified day to that on Day 0. The stabilization ratio at Day 6 is the ratio of the percent retention of HA viscosity with the specific additive to the percent retention of HA viscosity of the sample with no additive.

[4] = Effect of sucrose on HA viscosity at 55° C. (Example 3); settings: HA solution
Description: 6.9 g of HA (Lifecore, 888 KDa) was dissolved in 881 mL of 0.9% NaCl overnight. The dissolved HA was sterile filtered with 0.2 um filter (Millipore, Opticap 4″). 3.97 mL of 1 M Sodium Phosphate, pH 6.71 was added to the HA solution. Then 135.3 mg of USP grade Triamcinolone acetonide (TA) was mixed with 81.2 mL of dissolved HA in a sterile 250 mL Nalgene bottle. […] Each mixture was mixed for 1 hour. No additives were added to the control sample. For each large sample, 2±0.2 mL aliquots were placed in a sterile 4 mL glass vial which was then sealed with septum and aluminum cap. All these aliquoted samples, except the 0 hour samples, were placed in an oven set at 55° C. With the exception of the Day 0 samples, at each time point, 3 of the samples were removed from the oven and allowed to cool to room temperature. The viscosity of each sample was measured using AR550 Rheometer (TA Instrument) with 40 mm 2° steel cone at 22° C. with a 3 min time sweep. The percent retention of the HA viscosity was determined by the ratio of the viscosity (average of the 3 samples) on the specified day to that on Day 0. The stabilization ratio at Day 6 is the ratio of the percent retention of HA viscosity with the specific additive to the percent retention of HA viscosity of the sample with no additive.

[5] = Effect of sucrose on HA viscosity at 40° C. (Example 4); settings: HA solution
Description: 6.9 g of HA (Lifecore, 888 KDa) was dissolved in 881 mL of 0.9% NaCl overnight. The dissolved HA was sterile filtered with 0.2 μm filter (Millipore, Opticap 4″). 3.97 mL of 1 M sodium phosphate, pH 6.71 was added to the HA solution. Then 372 mg of USP grade triamcinolone acetonide (TA) was mixed with 223.2 mL of dissolved HA in a sterile 250 mL Nalgene bottle. […] Each mixture was mixed for 1 hour. No additives were added to the control sample. For each large sample, 2±0.2 mL aliquots were placed in a sterile 4 mL glass vial which was then sealed with septum and aluminum cap. All these aliquoted samples, except the Week 0 samples, were placed in an oven set at 40° C. With the exception of the Day 0 samples, at each time point, 3 of the samples were removed from the oven and allowed to cool to room temperature. The viscosity of each sample was measured using AR550 Rheometer (TA Instrument) with 40 mm 2° steel cone at 22° C. with a 3 min time sweep. The percent retention of the HA viscosity was determined by the ratio of the viscosity (average of the 3 samples) on the specified day to that on Week 0. The stabilization ratio at Week 6 is the ratio of the percent retention of HA viscosity with the specific additive to the percent retention of HA viscosity of the sample with no additive.

[6] = Effect of sucrose on HA (880) viscosity at 55° C. (Example 10); settings: HA (880 KDa) solution
Description: 4.7 g of HA (Lifecore, 880 KDa) was dissolved in 600 mL of 0.9% NaCl overnight. The dissolved HA was sterile filtered with 0.2 um filter (Millipore, Opticap 4″). 0.84 mL of 1 M Sodium Phosphate, pH 6.71 was added to 167.51 mL of the filtered HA solution. Then 248.4 mg of USP grade Triamcinolone acetonide (TA) was mixed with 144.2 mL of dissolved HA in a sterile 250 mL Nalgene bottle. […] Each mixture was mixed for 1 hour. No additives were added to the control sample. For each large sample, 2±0.2 mL aliquots were placed in a sterile 4 mL glass vial which was then sealed with septum and aluminum cap. All these aliquoted samples, except the 0 hour samples, were placed in an oven set at 55° C. With the exception of the 0 hour samples, at each time point (Day 1, Day 3 and Day 7), 3 of the samples were removed from the oven and allowed to cool to room temperature. The viscosity of each sample was measured using AR550 Rheometer (TA Instrument) with 40 mm 2° steel cone at 22° C. with a 3 min time sweep. The percent retention of the HA viscosity was determined by the ratio of the viscosity (average of the 3 samples) on the specified day to that on Day 0.

[7] = Effect of sucrose on HA (730) viscosity at 55° C. (Example 11); settings: HA (730 KDa) solution
Description: 4.7 g of HA (Lifecore, 730 KDa) was dissolved in 600 mL of 0.9% NaCl overnight. The dissolved HA was sterile filtered with 0.2 um filter (Millipore, Opticap 4″). 0.86 mL of 1 M Sodium Phosphate, pH 6.71 was added to 171.8 mL of the HA solution. Then 248.2 mg of USP grade Triamcinolone acetonide (TA) was mixed with 148.9 mL of dissolved HA in a sterile 250 mL Nalgene bottle. […] Each mixture was mixed for 1 hour. No additives were added to the control sample. For each large sample, 2±0.2 mL aliquots were placed in a sterile 4 mL glass vial which was then sealed with septum and aluminum cap. All these aliquoted samples, except the 0 hour samples, were placed in an oven set at 55° C. With the exception of the 0 hour samples, at each time point (Day 1, Day 3 and Day 7), 3 of the samples were removed from the oven and allowed to cool to room temperature. The viscosity of each sample was measured using AR550 Rheometer (TA Instrument) with 40 mm 2° steel cone at 22° C. with a 3 min time sweep. The percent retention of the HA viscosity was determined by the ratio of the viscosity (average of the 3 samples) on the specified day to that on Day 0.

[8] = Effect of additives on HA viscosity at 60° C., HA/TA (Example 16); settings: HA solution
Description: Then 344.3 mg of USP grade Triamcinolone Acetonide (TA) was mixed with 206.6 mL of dissolved HA in a sterile 250 mL Nalgene bottle. […] No additives were added to the control sample. For each large sample, 2±0.2 mL aliquots were placed in a sterile 4 mL glass vial which was then sealed with septum and aluminum cap. All these aliquoted samples, except the 0 hour samples, were placed in an oven set at 60° C. With the exception of the Day 0 samples, at each time point (Day 1, Day 3 and Day 7), 3 of the samples were removed from the oven and allowed to cool to room temperature. […] The percent retention of the HA viscosity was determined by the ratio of the viscosity (average of the 3 samples) on the specified day to that on Day 0.

[9] = Effect of additives on HA viscosity at 60° C., HA/TA (Example 17); settings: HA solution
Description: 3.92 g of HA (Shiseido, IV=2 m^3/kg) was dissolved in 500 mL of 0.9% NaCl overnight. The dissolved HA was sterile filtered with 0.2 um filter (Millipore, Opticap 4″). 2.16 mL of 1 M Sodium Phosphate, pH 6.71 was added to the HA solution. Then 344.3 mg of USP grade Triamcinolone Acetonide (TA) was mixed with 206.6 mL of dissolved HA in a sterile 250 mL Nalgene bottle. […] No additives were added to the control sample. For each large sample, 2±0.2 mL aliquots were placed in a sterile 4 mL glass vial which was then sealed with septum and aluminum cap. All these aliquoted samples, except the 0 hour samples, were placed in an oven set at 60° C. With the exception of the Day 0 samples, at each time point (Day 1, Day 3 and Day 6), 3 of the samples were removed from the oven and allowed to cool to room temperature. The viscosity of each sample was measured using AR550 Rheometer (TA Instrument) with 40 mm 2° steel cone at 22° C. with a 3 min time sweep. The percent retention of the HA viscosity was determined by the ratio of the viscosity (average of the 3 samples) on the specified day to that on Day 0. The stabilization ratio at Day 6 is the ratio of the percent retention of HA viscosity with the specific additive to the percent retention of HA viscosity of the sample with no additive.

[10] = Effect of additives on HA viscosity at 60° C., HA/triamcinolone hexacetonide (Example 18); settings: HA solution
Description: 19.6 g of HA (Shiseido, IV=2 m^3/kg) was dissolved in 2.5 L of 0.9% NaCl overnight. The dissolved HA was sterile filtered with 0.2 um filter (Millipore, Opticap 4″). 1.15 mL of 1 M Sodium Phosphate, pH 6.71 was added to 228.9 mL of the HA solution. Then 334.9 mg of USP grade Triamcinolone hexacetonide(TH) was mixed with 200.95 mL of dissolved HA in a sterile 250 mL Nalgene bottle. […] Each mixture was mixed for 1 hour. No additives were added to the control sample. For each large sample, 2±0.2 mL aliquots were placed in a sterile 4 mL glass vial which was then sealed with septum and aluminum cap. All these aliquoted samples, except the Day 0 samples, were placed in an oven set at 60° C. With the exception of the Day 0 samples, at each time point, 3 of the samples were removed from the oven and allowed to cool to room temperature. The viscosity of each sample was measured using AR550 Rheometer (TA Instrument) with 40 mm 2° steel cone at 22° C. with a 3 min time sweep. The percent retention of the HA viscosity was determined by the ratio of the viscosity (average of the 3 samples) on the specified day to that on Day 0. The stabilization ratio at Day 6 is the ratio of the percent retention of HA viscosity with the specific additive to the percent retention of HA viscosity of the sample with no additive.

| Compound | effect of presence of corticosteroid on HA viscosity vs same formulation without it (in words) [1] | effect of presence of corticosteroid on HA viscosity vs HA without it (in words) [2] | effect of presence of corticosteroid on HA viscosity vs HA without it (in words) [3] | effect of presence of corticosteroid on HA viscosity vs HA without it (in words) [4] | effect of presence of corticosteroid on HA viscosity vs HA without it (in words) [5] | effect of presence of corticosteroid on HA viscosity vs HA without it (in words) [6] | effect of presence of corticosteroid on HA viscosity vs HA without it (in words) [7] | effect of presence of corticosteroid on HA viscosity vs HA without it (in words) [8] | effect of presence of corticosteroid on HA viscosity vs HA without it (in words) [9] | effect of presence of corticosteroid on HA viscosity vs HA without it (in words) [10] |
| --- | --- | --- | --- | --- | --- | --- | --- | --- | --- | --- |
| CC1(C)O[C@@H]2C[C@H]3[C@@H]4CCC5=CC(=O)C=C[C@]5(C)[C@@]4(F)[C@@H](O)C[C@]3(C)[C@]2(C(=O)CO)O1 [TA, triamcinolone acetonide] | decreased more rapidly over time | increased degradation of the HA | increased degradation of the HA | increased degradation of the HA | increased degradation of the HA | increased decrease in the viscosity of the HA | increased decrease in the viscosity of the HA | increased degradation of the HA | increased degradation of the HA |  |
| CC(C)(C)CC(=O)OCC(=O)[C@@]12OC(C)(C)O[C@@H]1C[C@H]1[C@@H]3CCC4=CC(=O)C=C[C@]4(C)[C@@]3(F)[C@@H](O)C[C@@]12C [triamcinolone hexacetonide, Triamcinolone hexacetonide] |  |  |  |  |  |  |  |  |  | decrease in the viscosity of the HA |
